According to patent US20200323811A1, “INTRANASAL PHARMACEUTICAL COMPOSITION COMPRISING ANTICANCER DRUGCONTAINING NANOPARTICLES FOR TREATING BRAIN DISEASES” (INDUSTRY-UNIVERSITY COOPERATION FOUNDATION HANYANG …, priority 2016, published 2020):

How the values were obtained:
C6 glioblastoma cells = experiment: Cell cycle (DNA content, PI) analysis; assay type: cell-based, rat; details: 10 μM PTX equivalent, 24 hours
Method: (§1) The rat (C6) and human (U87MG) glioblastoma cells used in this experiment were obtained from ATCC (Rockville, Md.), and cultured in Dulbecco's Modified Eagle's Medium (DMEM) containing 10% fetal bovine serum, penicillin (100 IU/mL) and streptomycin (100 μg/mL) at 37° C. in a 5% CO2 incubator. For all in vitro experiments, the cells were seeded in a 12-well plate at a density of 1×10^5 cells/well.
And then, the cells were collected, and fixed with 70% ethanol at 4° C. for 2 hours. After incubation, the cells were washed, and additionally incubated with a DNase-free RNase (1 mg/mL) and 0.02 mg/mL of propidium iodide (PI). A cell cycle profile was studied using a flow cytometer (BD FACS Calibur™), and analyzed using FlowJo software.

C6-glioma cells = experiment: TUNEL assay and Hoechst staining in cultured cells; assay type: cell-based, rat
Method: as §1

rat glioma cells = experiment: Annexin V / 7-AAD apoptosis flow cytometry; assay type: cell-based; details: 24 hours
Method: as §1

[1] = In vivo toxicity by body weight of inoculated animals; design: species or system rat; details: glioblastoma rats, 2 mg/kg intranasal
Method: Further, the in vivo toxicity of NPs was evaluated by measuring a body weight of the inoculated animal. The change in body weight is reliable indicator for assessing the in vivo toxicity of a delivered drug. […] However, an insignificant change in body weight was shown in all animals due to cancer mass over time after tumor implantation (FIG. 8).

C-6 glioma cells = experiment: Viability/apoptosis (calcein-AM / EthD-1) analysis; assay type: cell-based, rat; details: 24 hours
Method: as §1
An image was captured using a fluorescence microscope (Leica, Wetzlar, Germany). A percentage of live or dead cells was calculated using ImageJ software, developed by the National Institute of Health (NIH).

U87MG glioma cells = experiment: Cell cycle (DNA content, PI) analysis; assay type: cell-based, human; details: 24 hours
Method: as §1

C6-Luc glioblastoma = experiment: Intracranial C6-Luc orthotopic glioblastoma model, intranasal inoculation; assay type: in vivo, Sprague-Dawley rats
Method: The therapeutic efficacy of intranasally-delivered PTX-loaded NPs was evaluated in an intracranial C6-Luc orthotropic model. […] Therefore, as a PTX solvent, DMSO was used. In addition, to minimize DMSO-associated cytotoxicity, the PTX-loaded NPs were dissolved in PBS. The intranasal inoculation started at day 4 after tumor administration and was performed daily for a total of three times.
(§2) Specifically, intracranial tumor models were established from 6-week-old male Sprague-Dawley rats. The anesthetized rats were placed in a stereotaxic frame, and the skull was gently exposed to spot the bregma. The monitoring points for the bregma were as follows: anteroposterior, 0 mm; lateral, 2.0 mm; and ventral, 4.0 mm. A fine burr hole (0.7 mm) was created in the skull without disrupting the dura using a microsurgical drill. A total of 2×10^5/10 μl C6-Fluc cells were injected using a 26-gauge Hamilton microsyringe (80330; Reno, Nev., USA) at a speed of 0.9 μl/min. To generate a human glioblastoma model, 1×10^5/[…] of U87MG-Fluc cells were inoculated into immunodeficient nude mice by the same method. After the operation, the skin was sutured.
In vivo and ex vivo bioluminescence imaging was performed. For in vivo bioluminescence imaging, 150 mg/kg of D-luciferin (Caliper, Hopkinton, Mass.) was intraperitoneally injected into anesthetized animals. The live images were taken 15 minutes after the injection of D-luciferin by the IVIS Lumina caliper series (Life Technologies, Carlsbad, Calif.). […]
For Nissl staining, paraffin-embedded brain sections were deparaffinized, rehydrated, and then subjected to treatment with a 0.1% crystal violet solution according to a standard protocol. […] The cancer volume was calculated using ImageJ software as described above. […]
To investigate apoptosis in the de-paraffinized and hydrated brain sections, the TUNEL assay was performed using an in situ apoptosis detection kit (Millipore) according to the manufacturer's instruction. […] Fluorescent signals of the cells were measured by taking images using a fluorescence microscope (Leica, Wetzlar, Germany). […]

U87MG-Fluc glioblastoma = experiment: Human glioblastoma (U87MG-Fluc) model, intranasal inoculation; assay type: in vivo, immunodeficient nude mice; details: 1 mg/kg intranasal, three inoculations
Method: as §2, with “A total of 2×10^5/10 μl C6-Fluc cells were injected using a 26-gauge Hamilton microsyringe (80330;” left out, “sutured. […] In vivo and ex vivo bioluminescence imaging was performed. For in vivo bioluminescence imaging, 150 mg/kg of D-luciferin (Caliper, Hopkinton, Mass.) was intraperitoneally injected into anesthetized animals. The live images were taken 15 minutes after the injection of D-luciferin by the IVIS Lumina caliper series (Life Technologies, Carlsbad, Calif.). To evaluate ex vivo bioluminescence, the excised brain tissue was incubated with a D-luciferin substrate for 15 minutes, followed by imaging as described above. […] The cancer volume was calculated using ImageJ software as described above.” for “sutured.”

Which “cells at the G1 phase” value (C6 glioblastoma cells) does the source give for `CC(=O)O[C@H]1C(=O)[C@@]2(C)[C@H]([C@H](OC(=O)c3ccccc3)[C@]3(O)C[C@H](OC(=O)[C@H](O)[C@@H](NC(=O)c4ccccc4)c4ccccc4)C(C)=C1C3(C)C)[C@]1(OC(C)=O)CO[C@@H]1C[C@@H]2O` [PTX, Paclitaxel] here?
The value was 9%.

And the “cells at the G2-M phase” value (C6 glioblastoma cells; non-treated 29%)?
Its value is 83%.

And the “nuclear morphology (Hoechst staining)” value (C6-glioma cells; compared with non-treated glioma cells)?
The value was “severe formation of DNA fragmentation or segmentation or condensed nuclei”.

What about the “number of apoptotic cells stained with TUNEL” value (C6-glioma cells; equivalent amounts of PTX) of the same compound?
Its value is “concentration-dependently increased”.

And the “number of TUNEL-positive cells” value (C6-glioma cells; fifth tested micromolar concentration (50 μM))?
The value was roughly 236.1.

And the “number of TUNEL-positive cells” value (C6-glioma cells; first tested micromolar concentration (0.01 μM))?
The value was “approximately 77”.

What about the “number of TUNEL-positive cells” value (C6-glioma cells; fourth tested micromolar concentration (10 μM)) of the same compound?
Its value is roughly 198.6.

And the “number of TUNEL-positive cells” value (C6-glioma cells; second tested micromolar concentration (0.1 μM))?
Its value is roughly 97.5.

And the “number of TUNEL-positive cells” value (C6-glioma cells; third tested micromolar concentration (1 μM))?
The value was roughly 136.6.

What about the “annexin V-positive cells” value (rat glioma cells; 1 μM) of the same compound?
Its value is 30.1%.

And the “annexin V-positive cells” value (rat glioma cells; 10 μM)?
The value was 33.1%.

And the “annexin V-positive cells” value (rat glioma cells; 50 μM)?
The value was 34.2%.

And the “number of annexin V and 7-AAD-positive cells” value (rat glioma cells; various concentrations)?
The value was “concentration-dependently increased”.

And the “change in body weight” value [1]?
Its value is “significant effect on body weight loss”.

And the dead cells (C-6 glioma cells; 0.01 μM)?
The dead cells was 8.3%.

And the dead cells (C-6 glioma cells; 0.1 μM)?
The dead cells was 23.1%.

What about the dead cells (C-6 glioma cells; 1 μM) of the same compound?
The dead cells was 31.8%.

What about the dead cells (C-6 glioma cells; 10 μM) of the same compound?
The dead cells was 49.2%.

And the dead cells (C-6 glioma cells; 50 μM)?
Its dead cells is 63.8%.

And the “arrested population at the G2-M phase compared with C6 cells” value (U87MG glioma cells)?
Its value is “slightly higher arrested population at the G2-M phase”.

What about the “tumor volume (Nissl staining)” value (C6-Luc glioblastoma; 2 mg/kg PTX equivalent intranasal, PBS 98.4) of the same compound?
The value was 90.1 mm^3.

What about the “tumor progression (in vivo bioluminescence imaging)” value (C6-Luc glioblastoma; 2 mg/kg PTX intranasal, three daily inoculations from day 4, up to day 14) of the same compound?
The value was “relatively identical to the saline-treated group”.

What about the “increase in in vivo bioluminescence signals” value (C6-Luc glioblastoma; day 14, 2 mg/kg intranasal) of the same compound?
The value was 1.0×10^8 fold.

What about the “tumor growth / therapeutic effect compared with saline (BLI)” value (U87MG-Fluc glioblastoma) of the same compound?
The value was “did not show any therapeutic effect”.
